Measurements taken from US20020192201A1, “Crohn's disease treatment methods” (priority 1998, published 2002).
Like-named read-outs stand apart in the source and are kept apart here.

Columns and labels:
[1] = system: M. para. isolated from resected tissue of CD patients; assay: in vitro test of seven antituberculosis drugs against M. para. using the Bactec system; assay type: cell-based, Mycobacterium paratuberculosis; conditions: for MIC50 (50% M. para. cells inhibited or killed) / MIC99.9 (99.9% M. para. cells inhibited or killed): M. para. from resected tissue of CD patients
[2] = system: MAP-positive and MAP-negative Crohn's disease patients (ELISA); assay: comparison of age-matched MAP-positive and MAP-negative patients at 1 year (CDAI); assay type: in vivo, human
Source text: Another study was undertaken to compare age-matched MAP-positive and -negative patients utilizing ELISA analysis forserum antibodies to MAP. 10 MAP-positive and 10 MAP-negative patients were compared at 1 year, utilizing the CDAI score as a primary endpoint. The elimination of corticosteroids and the need for immunotherapy were considered secondary endpoints. […] Steroids were eliminated in 8 of 10 patients, with 2 patients requiring low-dose steroids. In the MAP-negative group at 1 year, 6 of 10 patients were in complete remission, with an entry CDAI score of 308 and an exit score of 179. Of the responsive patients, 3 of 6 required additional immunotherapy, and 3 remained on antibiotics alone.

NC[C@H]1O[C@H](O[C@H]2[C@H](O)[C@@H](O[C@H]3O[C@H](CO)[C@@H](O)[C@H](N)[C@H]3O)[C@H](N)C[C@@H]2N)[C@H](O)[C@@H](O)[C@@H]1O [KM, kanamycin]
Status (resistant/sensitive) ([1]; Bactec system): R
MIC50 (50% M. para. cells inhibited or killed) ([1]; Bactec system): <1.3 µg/mL
MIC99.9 (99.9% M. para. cells inhibited or killed) ([1]; Bactec system): <3.0 µg/mL

CO[C@H]1/C=C/O[C@@]2(C)Oc3c(C)c(O)c4c(O)c(c(/C=N/N5CCN(C)CC5)c(O)c4c3C2=O)NC(=O)/C(C)=C\C=C\[C@H](C)[C@H](O)[C@@H](C)[C@@H](O)[C@@H](C)[C@H](OC(C)=O)[C@@H]1C [RIF, Rifampicin]
Status (resistant/sensitive) ([1]; Bactec system): R
MIC50 (50% M. para. cells inhibited or killed) ([1]; Bactec system): >1.0 µg/mL
MIC99.9 (99.9% M. para. cells inhibited or killed) ([1]; Bactec system): >2.6 µg/mL

NNC(=O)c1ccncc1 [INH, isoniazid]
Status (resistant/sensitive) ([1]; Bactec system): R
MIC50 (50% M. para. cells inhibited or killed) ([1]; Bactec system): >20 µg/mL
MIC99.9 (99.9% M. para. cells inhibited or killed) ([1]; Bactec system): >20 µg/mL

infliximab
outcome in patients unresponsive to antibiotics [2]: induction of remission in all patients

NC(=O)c1cnccn1 [PZA, pyrazinamide]
Status (resistant/sensitive) ([1]; Bactec system): R
MIC50 (50% M. para. cells inhibited or killed) ([1]; Bactec system): >20 µg/mL
MIC99.9 (99.9% M. para. cells inhibited or killed) ([1]; Bactec system): >20 µg/mL

[H]/N=C(/N)N[C@H]1[C@H](O)[C@@H](O)[C@H](O[C@@H]2O[C@@H](C)[C@](O)(C=O)[C@H]2O[C@@H]2O[C@@H](CO)[C@H](O)[C@@H](O)[C@@H]2NC)[C@@H](N/C(N)=N\[H])[C@@H]1O [ST, streptomycin]
Status (resistant/sensitive) ([1]; Bactec system): R
MIC50 (50% M. para. cells inhibited or killed) ([1]; Bactec system): >0.4 µg/mL
MIC99.9 (99.9% M. para. cells inhibited or killed) ([1]; Bactec system): >3.0 µg/mL

CC[C@@H](CO)NCCN[C@@H](CC)CO [EMB, ethambutol]
Status (resistant/sensitive) ([1]; Bactec system): S
MIC50 (50% M. para. cells inhibited or killed) ([1]; Bactec system): <0.5 µg/mL
MIC99.9 (99.9% M. para. cells inhibited or killed) ([1]; Bactec system): <3.0 µg/mL

CC[C@H]1OC(=O)[C@H](C)[C@@H](O[C@H]2C[C@@](C)(OC)[C@@H](O)[C@H](C)O2)[C@H](C)[C@@H](O[C@@H]2O[C@H](C)C[C@H](N(C)C)[C@H]2O)[C@](C)(OC)C[C@@H](C)C(=O)[C@H](C)[C@@H](O)[C@]1(C)O [CLR, clarithromycin]
Status (resistant/sensitive) [1]: S
MIC50 (50% M. para. cells inhibited or killed) ([1]; Bactec system): <0.25 µg/mL
MIC99.9 (99.9% M. para. cells inhibited or killed) ([1]; Bactec system): <1.25 µg/mL
